Measured values as given in the NIST ThermoML archive (doi:10.1016/j.jct.2019.02.025).

How the values were obtained:
[1] = for mass density / kinematic viscosity: 101.33 kPa, Liquid; for mass density: Vibrating tube method; for surface tension liquid-gas / kinematic viscosity: Surface laser light scattering (SLLS)
[2] = refractive index (Na D-line) (dimensionless); settings: 101.33 kPa, Liquid, Standard Abbe refractometry

CCCCCCCC(=O)OC [methyl octanoate]
Settings	kinematic viscosity [m2/s]	mass density [kg/m3]	refractive index	surface tension liquid-gas [mN/m]
[1], 293.15 K	–	876.58	–	–
[1], 298.19 K	1.51e-06	–	–	24.65
[1], 303.15 K	–	866.75	–	–
[1], 313.15 K	–	858.95	–	–
[1], 323.15 K	–	850.13	–	–
[1], 323.21 K	1.09e-06	–	–	23.02
[1], 333.15 K	–	841.3	–	–
[1], 343.15 K	–	832.44	–	–
[1], 348.23 K	8.31e-07	–	–	21.61
[1], 353.15 K	–	823.54	–	–
[1], 363.15 K	–	814.59	–	–
[1], 373.15 K	–	805.56	–	–
[1], 373.28 K	6.5e-07	–	–	19.62
[1], 383.15 K	–	796.52	–	–
[1], 393.15 K	–	787.36	–	–
[1], 398.31 K	5.19e-07	–	–	17.62
[1], 403.15 K	–	778.1	–	–
[1], 413.15 K	–	768.72	–	–
[1], 423.15 K	–	759.27	–	–
[1], 423.31 K	4.3e-07	–	–	15.47
[1], 433.15 K	–	749.61	–	–
[1], 443.15 K	–	739.56	–	–
[1], 448.33 K	3.59e-07	–	–	13.44
[1], 453.15 K	–	729.82	–	–
[2], 278.15 K	–	–	1.42385	–
[2], 283.15 K	–	–	1.42168	–
[2], 288.15 K	–	–	1.41951	–
[2], 293.15 K	–	–	1.41734	–
[2], 298.15 K	–	–	1.41516	–
[2], 303.15 K	–	–	1.41298	–
[2], 308.15 K	–	–	1.41079	–
[2], 313.15 K	–	–	1.40854	–
[2], 318.15 K	–	–	1.40629	–
[2], 323.15 K	–	–	1.40405	–
[2], 328.15 K	–	–	1.40183	–
[2], 333.15 K	–	–	1.39965	–
[2], 338.15 K	–	–	1.3975	–
[2], 343.15 K	–	–	1.39535	–
[2], 348.15 K	–	–	1.3932	–
[2], 353.15 K	–	–	1.39104	–
[2], 358.15 K	–	–	1.38886	–

CCCCCCC(=O)OCC [ethyl heptanoate]
Settings	kinematic viscosity [m2/s]	mass density [kg/m3]	refractive index	surface tension liquid-gas [mN/m]
[1], 293.15 K	–	869.42	–	–
[1], 298.25 K	1.33e-06	–	–	24.88
[1], 303.15 K	–	860.36	–	–
[1], 313.15 K	–	851.32	–	–
[1], 323.03 K	9.55e-07	–	–	23.07
[1], 323.15 K	–	842.26	–	–
[1], 333.15 K	–	833.07	–	–
[1], 343.15 K	–	824.1	–	–
[1], 347.8 K	7.3e-07	–	–	20.71
[1], 353.15 K	–	814.99	–	–
[1], 363.15 K	–	805.81	–	–
[1], 372.91 K	5.73e-07	–	–	18.61
[1], 373.15 K	–	796.55	–	–
[1], 383.15 K	–	787.24	–	–
[1], 393.15 K	–	777.81	–	–
[1], 397.51 K	4.7e-07	–	–	16.27
[1], 403.15 K	–	768.3	–	–
[1], 413.15 K	–	758.65	–	–
[1], 421.88 K	3.95e-07	–	–	14.43
[1], 423.15 K	–	748.89	–	–
[1], 433.15 K	–	738.95	–	–
[1], 443.15 K	–	728.84	–	–
[1], 448 K	3.39e-07	–	–	12.31
[2], 278.15 K	–	–	1.42006	–
[2], 283.15 K	–	–	1.41784	–
[2], 288.15 K	–	–	1.41562	–
[2], 293.15 K	–	–	1.41341	–
[2], 298.15 K	–	–	1.41119	–
[2], 303.15 K	–	–	1.40896	–
[2], 308.15 K	–	–	1.40673	–
[2], 313.15 K	–	–	1.40445	–
[2], 318.15 K	–	–	1.40216	–
[2], 323.15 K	–	–	1.39988	–
[2], 328.15 K	–	–	1.39761	–
[2], 333.15 K	–	–	1.39535	–
[2], 338.15 K	–	–	1.39311	–
[2], 343.15 K	–	–	1.39088	–
[2], 348.15 K	–	–	1.38866	–
[2], 353.15 K	–	–	1.38645	–
[2], 358.15 K	–	–	1.38421	–

CCCCCCCCCCCCCC(=O)OC [methyl tetradecanoate]
Settings	kinematic viscosity [m2/s]	mass density [kg/m3]	refractive index	surface tension liquid-gas [mN/m]
[1], 293.15 K	–	867.06	–	–
[1], 303.15 K	–	859.28	–	–
[1], 313.15 K	–	851.61	–	–
[1], 323.15 K	–	843.97	–	–
[1], 323.17 K	2.41e-06	–	–	23.37
[1], 333.15 K	–	836.37	–	–
[1], 343.15 K	–	828.8	–	–
[1], 348.16 K	1.76e-06	–	–	21.83
[1], 353.15 K	–	821.26	–	–
[1], 363.15 K	–	813.71	–	–
[1], 373.15 K	–	806.17	–	–
[1], 373.18 K	1.38e-06	–	–	20.78
[1], 383.15 K	–	798.64	–	–
[1], 393.15 K	–	791.09	–	–
[1], 398.2 K	1.08e-06	–	–	19.71
[1], 403.15 K	–	783.52	–	–
[1], 413.15 K	–	775.91	–	–
[1], 423.15 K	–	768.24	–	–
[1], 423.17 K	8.63e-07	–	–	18.31
[1], 433.15 K	–	760.61	–	–
[1], 443.15 K	–	752.95	–	–
[1], 448.17 K	7e-07	–	–	16.82
[1], 453.15 K	–	745.22	–	–
[2], 293.15 K	–	–	1.43704	–
[2], 298.15 K	–	–	1.43499	–
[2], 303.15 K	–	–	1.43296	–
[2], 308.15 K	–	–	1.43093	–
[2], 313.15 K	–	–	1.4289	–
[2], 318.15 K	–	–	1.42681	–
[2], 323.15 K	–	–	1.42472	–
[2], 328.15 K	–	–	1.42254	–
[2], 333.15 K	–	–	1.4202	–
[2], 338.15 K	–	–	1.41783	–
[2], 343.15 K	–	–	1.4163	–
[2], 348.15 K	–	–	1.41474	–
[2], 353.15 K	–	–	1.41282	–
[2], 358.15 K	–	–	1.41083	–
